15 molecules from patent US7981926B2, “Fluorotaxoids” (Research Foundation of State University of New York, priority 2005, dated 2011) can be followed below.

In one assay the test system is MCF7 (mammary carcinoma). The assay can be described thus: Tumor growth inhibitory activity (cytotoxicity), SRB method of Skehan et al, MCF7. To be noted: read-out: IC50 MCF7 (breast). It is filed as cell-based, human. From the text: (§1) The results were obtained according to the methods of Skehan et al (See Skehan et al., J. Nat. Cancer Inst., 82, 1107 (1990)), as more fully described in the Examples. The resistance factor (R/S) shown in the table is a measure of the degree of resistance of a cell line against a taxoid compound. The resistance factor is a ratio of the cytoxicity of a taxoid compound against a drug-resistant cell line (R) as compared to its cytoxicity against a drug-sensitive cell line (S).
(§2) In the tables, lower numbers indicate higher potency (or greater activity). Paclitaxel was used as the standard for comparison. The data represent the mean values of at least three separate experiments.
(§3) Assessment of cell growth inhibition was determined according to the methods of Skehan et al (See Skehan et al., J. Nat. Cancer Inst., 82, 1107 (1990)). Briefly, cells were plated between 400 and 1200 cells/well in 96 well plates and incubated at 37° C. for 15-18 h prior to drug addition to allow attachment of cells. Compounds tested were solubilized in 100% DMSO and further diluted in RPMI-1640 containing 10 mM HEPES. Each cell line was treated with 10 concentrations of compounds (5 log range). After a 72 h incubation, 100 μL of ice-cold 50% TCA was added to each well and incubated for 1 h at 4° C. Plates were then washed 5 times with tap water to remove TCA, low-molecular-weight metabolites and serum proteins. Sulforhodamine B (SRB) (0.4%, 50 μL) was added to each well. Following a 5 minute incubation at room temperature, plates were rinsed 5 times with 0.1% acetic acid and air dried. Bound dye was solubilized with 10 mM Tris Base (pH 10.5) for 5 min on a gyratory shaker. Optical density was measured at 570 nm.
(§4) Data were fit with the Sigmoid-Emax concentration-effect model with non-linear regression, weighted by the reciprocal of the square of the predicted response (see Holford, N. H. G.; Scheiner, L. B., “Understanding the dose-effect relationship: Clinical applications of pharmaco-kinetic-pharmacodynamic models,” Clin. Pharmacokin., 6, 429-453 (1981)). The fitting software was developed by the Roswell Park Cancer Institute with Microsoft FORTRAN, and uses the Marquardt algorithm (see Marquardt, D. W., “An algorithm for least squares estimation of nonlinear parameters,” J. Soc. Ind. Appl. Math., 11, 431-441 (1963)) as adopted by Nash for the non-linear regression (see Nash, J. C., “Compact numerical method for computers: Linear algebra and function minimization,” John Wiley & Sons, New York, 1979).
For orientation: The SRB assay estimates cell density from bound dye.

For assay [1], the system named is MCF7-R (mammary carcinoma cells 250-fold resistant to paclitaxel). The assay can be described thus: Tumor growth inhibitory activity (cytotoxicity), SRB method of Skehan et al, MCF7-R. It is filed as cell-based, human. To be noted: for IC50: read-out: IC50 MCF7-R (breast); for R/S (resistance factor): ratio of cytotoxicity against drug-resistant MCF7-R (R) to drug-sensitive MCF7 (S).
Description: as §1, §2, §3, §4

[2] abbreviates: Homo sapiens, MCF7, 72 h drug exposure, SRB, mean of at least three separate experiments.
Setting [3] is: Homo sapiens, MCF7R, drug-resistant cell line, 72 h drug exposure, SRB, mean of at least three separate experiments.
Setting [4] is: 72 h drug exposure, SRB, mean of at least three separate experiments.
Setting [5] is: drug-resistant cell line, 72 h drug exposure, SRB, mean of at least three separate experiments.

Read-outs that look alike come from different tables or passages of the source.

Regarding `CC(=O)O[C@H]1C(=O)[C@@]2(C)[C@H]([C@H](OC(=O)c3ccccc3)[C@]3(O)C[C@H](OC(=O)[C@H](O)[C@@H](NC(=O)c4ccccc4)c4ccccc4)C(C)=C1C3(C)C)[C@]1(OC(C)=O)CO[C@@H]1C[C@@H]2O` [Paclitaxel, paclitaxel, reference compound], the values for the IC50 (in the assay with MCF7 (mammary carcinoma) (setting [2]); in assay [1] (setting [3])) were 1.2 nM and 300 nM, respectively. Moreover, the “R/S (resistance factor)” value in assay [1] was determined as 250.
The matching figures for `COc1cccc(C(=O)O[C@H]2C3[C@](C)(C(=O)[C@H](OC(C)=O)C4=C(C)[C@@H](OC(=O)[C@H](O)[C@H](C=C(F)F)NC(=O)OC(C)(C)C)C[C@]2(O)C4(C)C)[C@@H](O)C[C@H]2OC[C@@]32OC(C)=O)c1` (stereo partly drawn) [SB-T-12851-1, 3′-Dephenyl-3′-(2,2-difluorovinyl)-2-debenzoyl-2-(3-methoxybenzoyl)-10-acetyldocetaxel]: 0.25 nM, 1.5 nM and 6.0.
The matching figures for `CC(=O)O[C@H]1C(=O)[C@@]2(C)C([C@H](OC(=O)c3cccc(F)c3)[C@]3(O)C[C@H](OC(=O)[C@H](O)[C@H](C=C(F)F)NC(=O)OC(C)(C)C)C(C)=C1C3(C)C)[C@]1(OC(C)=O)CO[C@@H]1C[C@@H]2O` (stereo partly drawn) [SB-T-12851-2, 3′-Dephenyl-3′-(2,2-difluorovinyl)-2-debenzoyl-2-(3-fluorobenzoyl)-10-acetyldocetaxel]: 0.13 nM, 1.53 nM and 12.
The matching figures for `CC(=O)O[C@H]1C(=O)[C@@]2(C)C([C@H](OC(=O)c3cccc(N=[N+]=[N-])c3)[C@]3(O)C[C@H](OC(=O)[C@H](O)[C@H](C=C(F)F)NC(=O)OC(C)(C)C)C(C)=C1C3(C)C)[C@]1(OC(C)=O)CO[C@@H]1C[C@@H]2O` (stereo partly drawn) [SB-T-12851-3, 3′-Dephenyl-3′-(2,2-difluorovinyl)-2-debenzoyl-2-(3-azidobenzoyl)-10-acetyldocetaxel]: 0.092 nM, 0.34 nM and 3.7.
Turning to `CC(=O)O[C@H]1C(=O)[C@@]2(C)C([C@H](OC(=O)c3cccc(Cl)c3)[C@]3(O)C[C@H](OC(=O)[C@H](O)[C@H](C=C(F)F)NC(=O)OC(C)(C)C)C(C)=C1C3(C)C)[C@]1(OC(C)=O)CO[C@@H]1C[C@@H]2O` (stereo partly drawn) [SB-T-12851-4, 3′-Dephenyl-3′-(2,2-difluorovinyl)-2-debenzoyl-2-(3-chlorobenzoyl)-10-acetyldocetaxel], the IC50 (commonly the concentration that gives 50% inhibition) stood at 0.13 nM with MCF7 (mammary carcinoma) (setting [2]) and 0.7 nM in assay [1] (setting [3]). In addition, in assay [1], the “R/S (resistance factor)” value came out at 5.4.
Consider `CC(=O)O[C@@]12CO[C@@H]1C[C@H](O)[C@@]1(C)C(=O)[C@H](OC(=O)C3CC3)C3=C(C)[C@@H](OC(=O)[C@H](O)[C@H](C=C(F)F)NC(=O)OC(C)(C)C)C[C@@](O)([C@@H](OC(=O)c4ccccc4)[C@H]21)C3(C)C` [SB-T-12852, 3′-dephenyl-3′-(2,2-difluorovinyl)-10-cyclopropanecarbonyl-docetaxel], for which the IC50 in the assay on MCF7 (mammary carcinoma) (setting [4]) is 0.12 nM; in assay [1] (setting [5]), 6.03 nM. For the same molecule, the “R/S (resistance factor)” value in assay [1] was found to be 53.
The matching figures for `COc1cccc(C(=O)O[C@H]2[C@@H]3[C@]4(OC(C)=O)CO[C@@H]4C[C@H](O)[C@@]3(C)C(=O)[C@H](OC(=O)C3CC3)C3=C(C)[C@@H](OC(=O)[C@H](O)[C@H](C=C(F)F)NC(=O)OC(C)(C)C)C[C@]2(O)C3(C)C)c1` [SB-T-12852-1, 3′-Dephenyl-3′-(2,2-difluorovinyl)-2-debenzoyl-2-(3-methoxybenzoyl)-10-cyclopropanecarbonyldocetaxel]: 0.092 nM, 0.48 nM and 5.2.
For `CC(=O)OC12COC1CC(O)C1(C)C(=O)C(OC(=O)C3CC3)C3=C(C)C(OC(=O)C(O)C(C=C(F)F)NC(=O)OC(C)(C)C)CC(O)(C(OC(=O)c4cccc(F)c4)C21)C3(C)C` (stereo not drawn) [SB-T-12852-2, 3′-Dephenyl-3′-(2,2-difluorovinyl)-2-debenzoyl-2-(3-fluorobenzoyl)-10-cyclopropanecarbonyldocetaxel], the IC50 came out at 0.076 nM in the assay on MCF7 (mammary carcinoma) (setting [4]) and 1.72 nM in assay [1] (setting [5]). Besides, in assay [1], the “R/S (resistance factor)” value was 23.
The matching figures for `CC(=O)O[C@@]12CO[C@@H]1C[C@H](O)[C@@]1(C)C(=O)[C@H](OC(=O)C3CC3)C3=C(C)[C@@H](OC(=O)[C@H](O)[C@H](C=C(F)F)NC(=O)OC(C)(C)C)C[C@@](O)([C@@H](OC(=O)c4cccc(N=[N+]=[N-])c4)[C@H]21)C3(C)C` [SB-T-12852-3, 3′-Dephenyl-3′-(2,2-difluorovinyl)-2-debenzoyl-2-(3-azidobenzoyl)-10-cyclopropanecarbonyldocetaxel]: 0.092 nM, 0.45 nM and 4.9.
On the same counts, the results for `CC(=O)OC12COC1CC(O)C1(C)C(=O)C(OC(=O)C3CC3)C3=C(C)C(OC(=O)C(O)C(C=C(F)F)NC(=O)OC(C)(C)C)CC(O)(C(OC(=O)c4cccc(Cl)c4)C21)C3(C)C` (stereo not drawn) [SB-T-12852-4, 3′-Dephenyl-3′-(2,2-difluorovinyl)-2-debenzoyl-2-(3-chlorobenzoyl)-10-cyclopropanecarbonyldocetaxel] are 0.12 nM, 0.5 nM and 4.2.
Regarding `CCC(=O)O[C@H]1C(=O)[C@@]2(C)C([C@H](OC(=O)c3cccc(OC)c3)[C@]3(O)C[C@H](OC(=O)[C@H](O)[C@H](C=C(F)F)NC(=O)OC(C)(C)C)C(C)=C1C3(C)C)[C@]1(OC(C)=O)CO[C@@H]1C[C@@H]2O` (stereo partly drawn) [SB-T-12853-1, 3′-Dephenyl-3′-(2,2-difluorovinyl)-2-debenzoyl-2-(3-methoxybenzoyl)-10-propanoyldocetaxel], the IC50 with MCF7 (mammary carcinoma) (setting [2]) is 0.34 nM; in assay [1] (setting [3]), 0.57 nM. For the same molecule, the “R/S (resistance factor)” value in assay [1] was 1.7.
On the same counts, the results for `CCC(=O)O[C@H]1C(=O)[C@@]2(C)C([C@H](OC(=O)c3cccc(F)c3)[C@]3(O)C[C@H](OC(=O)[C@H](O)[C@H](C=C(F)F)NC(=O)OC(C)(C)C)C(C)=C1C3(C)C)[C@]1(OC(C)=O)CO[C@@H]1C[C@@H]2O` (stereo partly drawn) [SB-T-12853-2, 3′-Dephenyl-3′-(2,2-difluorovinyl)-2-debenzoyl-2-(3-fluorobenzoyl)-10-propanoyldocetaxel] are 0.23 nM, 2.54 nM and 11.
On the same counts, the results for `CCC(=O)O[C@H]1C(=O)[C@@]2(C)C([C@H](OC(=O)c3cccc(N=[N+]=[N-])c3)[C@]3(O)C[C@H](OC(=O)[C@H](O)[C@H](C=C(F)F)NC(=O)OC(C)(C)C)C(C)=C1C3(C)C)[C@]1(OC(C)=O)CO[C@@H]1C[C@@H]2O` (stereo partly drawn) [SB-T-12853-3, 3′-Dephenyl-3′-(2,2-difluorovinyl)-2-debenzoyl-2-(3-azidobenzoyl)-10-propanoyldocetaxel] are 0.13 nM, 0.38 nM and 2.9.
On the same counts, the results for `CCC(=O)O[C@H]1C(=O)[C@@]2(C)C([C@H](OC(=O)c3cccc(Cl)c3)[C@]3(O)C[C@H](OC(=O)[C@H](O)[C@H](C=C(F)F)NC(=O)OC(C)(C)C)C(C)=C1C3(C)C)[C@]1(OC(C)=O)CO[C@@H]1C[C@@H]2O` (stereo partly drawn) [SB-T-12853-4, 3′-Dephenyl-3′-(2,2-difluorovinyl)-2-debenzoyl-2-(3-chlorobenzoyl)-10-propanoyldocetaxel] are 0.13 nM, 0.45 nM and 3.5.
As to `COc1cccc(C(=O)O[C@H]2C3[C@](C)(C(=O)[C@H](OC(=O)N(C)C)C4=C(C)[C@@H](OC(=O)[C@H](O)[C@H](C=C(F)F)NC(=O)OC(C)(C)C)C[C@]2(O)C4(C)C)[C@@H](O)C[C@H]2OC[C@@]32OC(C)=O)c1` (stereo partly drawn) [SB-T-12854-1, 3′-dephenyl-3′-(2,2-difluorovinyl)-2-debenzoyl-2-(3-methoxybenzoyl)-10-dimethylcarbamate-docetaxel], the half-inhibitory concentration (IC50) came out at 0.11 nM in the assay with MCF7 (mammary carcinoma) (Homo sapiens, MCF7, 72 h) and 0.96 nM in assay [1] (Homo sapiens, MCF7R, 72 h). Further, in assay [1], the “R/S (resistance factor)” value was determined as 8.7.
